Row | SMILES | melting point
1 | COc1ccc(CCCC2SC(=O)NC2=O)c2ccc(=O)n(C)c12 (stereo unspecified) | 172 to 175 °C
2 | NC(=O)COCC(N)=S | 164 to 168 °C
3 | CCOC(=O)c1cnn(-c2ccc(OCC(CC)CC)c(C#N)c2)c1 | 114 to 115 °C
4 | OCCCc1cc(-c2ccc(Cl)cc2)n(-c2ccc(Cl)nn2)n1 | 131 to 133 °C
5 | N#CC(C#N)=CN(N=C(C#N)C#N)c1ccc(C#N)cc1 | 231 °C
6 | CC1=NN(C)C(=O)C1C(=O)Nc1cccc2c1CCC2(C)C (stereo unspecified) | 141 °C
7 | COc1ccc(-c2coc3ccc(-c4nnc(SCc5ccc(OC)c(F)c5)o4)cc23)cc1 | 162 to 163 °C
8 | Cn1c(=O)c2c(-c3nc(C4CC4)no3)ncn2c2cccnc21 | 266 to 269 °C
9 | CCCCCc1ccc(-c2ccc(CC#N)cc2)cc1 | 80 °C
10 | NS(=O)(=O)c1ccc(-c2cn(-c3nc(-c4ccc(F)cc4)cc(C(F)(F)F)n3)cn2)s1 | 244 °C
11 | CC1(C)OC(=O)c2c(cccc2-c2ccccn2)O1 | 142 °C
12 | CCc1cc2c(s1)S(=O)(=O)NC2=O | 143 °C
13 | O=P(O)(O)Cc1ccc(-c2ccc(CP(=O)(O)O)cc2)cc1 | 114 °C
14 | COc1cc(OC)c(F)c(N=Cc2cnc(SC)nc2NC2CC2)c1F | 172 to 174 °C
15 | O=C1c2ccccc2C(=O)c2c1cccc2N1CCNCC1 | 190 °C
16 | COc1nsc(SCOCC#CI)c1C#N | 124 to 125 °C
17 | COc1cc(CSc2ccc(N)nn2)cc(OC)c1OC | 143 to 146 °C
18 | CC(=O)C(Cl)=NNc1ccc(Cl)cc1 | 168 to 171 °C
19 | CN1CCN(CC(=O)O)CC1 | 158 to 160 °C
20 | COc1nc2cc(Cl)c(Cl)c(N(CC(C)O)S(C)(=O)=O)c2nc1OC (racemic) | 176 to 177 °C
21 | ON=Cc1ccc(-c2ccc(Cl)cc2)o1 | 139 to 141 °C
22 | CCOC(=O)C1=Cc2cc(I)ccc2OC1C(F)(F)F (stereo unspecified) | 105 to 106 °C

Row | SMILES | melting point
23 | CC(C)c1cc(C=C2C(=O)NC(=O)N2C)cc(C(C)C)c1O | 197 to 208 °C
24 | CCOC(=O)c1cnn2c(-c3cccnc3)ccnc12 | 170 to 171 °C
25 | CCCc1c(OCCOCCOc2c(C(C)=O)ccc(OCC(=O)O)c2CCC)ccc(C(C)=O)c1O | 96 to 99 °C
26 | COC(=O)C(C)(C)S(=O)(=O)N1CC=C(c2ccc(Br)c(C)c2)CC1 | 100 to 101 °C
27 | CCOC(=O)c1c(SCOC)nc2c(F)c(F)c(F)cc2c1O | 91 to 94 °C
28 | COc1ccc(C=C2c3ccccc3C(=NOCC(=O)NCC(C)(C)SN=O)c3ccccc32)cc1O | 143 to 145 °C
29 | CCOC(=O)c1c2n(c3c(F)c(N4CCC(NC(=O)C(F)(F)F)C4)c(F)cc3c1=O)C(C)S2 (stereo unspecified) | 235 to 237 °C
30 | NC(=NO)c1c(F)cccc1Cl | 115 to 120 °C
31 | CSC(=C[N+](=O)[O-])Nc1ccc(Cl)nc1 | 169 to 171 °C
32 | COc1cccc(-c2ccc3c(c2)NC(=O)OC3(C)C)c1 | 167 to 168 °C
33 | CC(C)OCc1nc(N)c2nccnc2n1 | 139 to 141 °C
34 | C=CCSc1ncn(C(=O)N(CC=C)CC=C)n1 | 27 to 30 °C
35 | N#Cc1cccc(C2OCCO2)n1 | 64 °C
36 | O=C(O)c1cc2ccoc2nc1C(=O)O | 189 to 192 °C
37 | C#CCOc1ccc(C(=O)C=Cc2cccnc2)c(O)c1 | 115 to 117 °C
38 | O=[N+]([O-])c1ccc(Br)c(SC(F)(F)F)c1 | 118 °C
39 | Nc1ccc2c(c1)C(=O)N(c1ccc3ccsc3c1)C2 | 233 to 236 °C
40 | O=C(Cc1cc(C(F)(F)F)ns1)c1ccc(Cl)cc1 | 109 to 110 °C
41 | Cc1c(O)c(C)c(CS)c(C)c1CS | 159 °C
42 | COc1cc(C(C)C)c2c(c1)S(=O)(=O)N(COc1cc(=O)n3c(n1)CCCC3)C2=O | 184 to 186 °C
43 | N#Cc1cncc(C2OC(CO)C(O)C2O)c1 (stereo unspecified) | 169 to 171 °C
44 | CC(C)(C)N1C(=O)c2cnc(CCl)cc2C1=O | 62 to 64 °C

Row | SMILES | melting point
45 | O=C(O)c1ncc(Cl)nc1Cl | 139 to 141 °C
46 | COc1nc2cc(Cl)c(Cl)c(-n3cnnc3-c3cccnc3)c2nc1OC | 206 to 207 °C
47 | CCOC(=O)C(C)=NNc1ccc2[nH]c(=O)[nH]c2c1 | 220 °C
48 | CCCOc1ccc(OC)cc1-c1ncc(C(=O)O)c(=O)[nH]1 | 185 to 187 °C
49 | CCOC(=O)Cc1c(C)nc(SCc2ccc(OC)cc2)n1C | 158 to 160 °C
50 | O=c1[nH]c2cc(F)ccc2c(=O)n1S(=O)(=O)c1ccc(Cl)cc1 | > 200 °C
51 | CN(C)Cc1ccc2c(NCc3ccc(NC(=O)c4ccc(F)cc4)cc3)nc(N(C)C)nc2c1 | 94 °C
52 | O=C1C(Cc2ncccc2Br)c2ccccc2C12COc1cc3c(cc12)OCCO3 (stereo unspecified) | 217 to 218 °C
53 | CCNC(=O)NC(=S)N1N=C(c2ccc([N+](=O)[O-])cc2)c2cc3c(cc2CC1C)OCO3 (stereo unspecified) | 176 to 177 °C
54 | COC(=O)/C=C(\C)c1ccc2c(c1)C(C)(C)OC(=O)N2 | 131 to 132 °C
55 | O=C(O)c1cn(-c2ccc(F)cc2F)c2c(F)c(F)c(F)c(F)c2c1=O | 250 to 252 °C
56 | Cc1cccc(C)c1NC(=O)NCCCNC(C)C | 152 to 154 °C
57 | O=C(O)Cc1c(C(=O)c2cccc(Cl)c2)[nH]c2ccc(Cl)cc12 | 243 to 247 °C
58 | CCc1cccc2c(C=O)cc(OC)c(O)c12 | 114 to 115 °C
59 | Cc1cc(C(F)(F)F)nn1CC(=O)N1CCC(c2nc(NC(=O)C3CCCc4ccccc43)cs2)CC1 (stereo unspecified) | 179 to 181 °C
60 | Oc1cc(-c2ccccc2)nc(O)n1 | 195 to 200 °C
61 | CC(=O)N1CCc2cc(CC(C)NCCOc3ccccc3OCC(F)(F)F)cc(C#N)c21 (stereo unspecified) | 57 to 59 °C
62 | O=C1CCc2c(Br)cc(F)cc21 | 129 to 131 °C
63 | O=S(=O)(NC1CC1)c1ccc(Nc2nc(OCC3CCCCC3)c3nc[nH]c3n2)cc1 | 220 to 221 °C
64 | Cc1ccc(S(C)(=O)=O)c(S(=O)(=O)NC(C)(C)C)c1 | 129 to 133 °C
65 | C[C@H]1C(=O)C[C@@H]2C[C@H]1OO[C@]2(C)/C=C/C(=O)c1ccc(Cl)cc1 | 127 °C
66 | COc1ccc(Cn2c(=O)c(C#N)c(Cl)c3cc(Cl)cnc32)cc1 | 208 °C

Results, then the molecule that gave them:

Row | melting point | SMILES
67 | 204 to 205 °C | Cn1nnnc1SCC(=O)Nc1ccc(C2CCCCC2)cc1
68 | 57 to 61 °C | NCC(O)CSc1ccccc1 (stereo unspecified)
69 | 102 to 103 °C | CCOC(=O)c1sc(N2C[C@@H](Cc3ccccc3)NC2=O)nc1C
70 | 260 to 261 °C | O=C(Cn1c(-c2ccc(Cl)cc2)nc2cccnc21)NC1CCCC1
71 | 131 to 132 °C | Cc1cc(C)c2occ(-c3ccccc3)c2c1
72 | 220 to 221 °C | NC(=O)Cn1cc(-c2ccccc2)c2cc(Cl)ccc21
73 | 208 °C | Cc1ccc2c(c1)C(c1ccccc1Cl)C(=O)N2 (stereo unspecified)
74 | 153 to 156 °C | COC(=O)C(Cc1ccccc1)N1CC(N2C(=O)c3ccccc3C2=O)C1=O (stereo unspecified)
75 | 79 to 80 °C | COc1ccc(OCc2ccc3ccccc3n2)cc1
76 | 91 to 93 °C | Cc1ccccc1-c1cc(N2CCN(C(=O)CO)CC2)ncc1C(=O)N(C)Cc1cc(C(F)(F)F)cc(C(F)(F)F)c1
77 | 43 to 45 °C | [N-]=[N+]=NCc1cccc(C(=O)c2ccc(Cl)cc2)c1
78 | 152 °C | COC(=O)c1ccc2nc(-c3ccc(C(C)(C)C)cc3)[nH]c2c1
79 | 221 to 222 °C | NC(=O)NN=Cc1c(-c2ccccc2)nn2ccccc12
80 | 76 to 77 °C | CC(C)c1ccc(C(=O)C2CCN(Cc3ccccc3)CC2)cc1
81 | 98.3 to 98.4 °C | CCCN(CCC)C1COc2cccc(C(=O)c3ccccc3F)c2C1 (stereo unspecified)
82 | 207 to 209 °C | CC1Cc2c(n(-c3ccccc3)c3ncccc3c2=O)O1 (stereo unspecified)
83 | 187 to 188 °C | COC(=O)c1ccc(Cc2cccc3ccc(C=C(C)C(=O)O)cc23)c(OC)c1
84 | 123 to 129 °C | O=C1OC(CCCCN2CCN(c3ccccc3O)CC2)CN1c1ccccc1 (stereo unspecified)
85 | 86 to 87 °C | COC(=O)c1cccc(COC(OC(C)=O)C(=O)c2ccccc2)c1 (stereo unspecified)
86 | 164 to 167 °C | Cc1cc(Nc2nc(Nc3ccc(N)cc3)nc3ccccc23)[nH]n1

Row | melting point | SMILES
87 | 95 to 99 °C | CON=C(Cn1ncc(-c2ccc(S(C)(=O)=O)cc2)c(-c2ccc(F)cc2)c1=O)c1ccccc1
88 | 235 to 238 °C | CC(C(O)c1ccccc1)n1nnc2cc3c(cc2c1=O)OC1CCCN1C3=O (stereo unspecified)
89 | 220 to 221 °C | Nc1nnc(-c2ccc3occ(-c4ccccc4Cl)c3c2)o1
90 | 212 to 214 °C | COc1ccc(C(=N)c2ccc(Cl)cc2)c(O)c1
91 | 129 to 131 °C | Cc1cc(C(C)N(O)C(N)=O)ccc1Cl (stereo unspecified)
92 | 158 to 163 °C | c1ccc(CNc2nc(-c3cccs3)nc3ccccc23)cc1
93 | 154 °C | CC(C)(CCc1ccccc1)NCC(O)c1ccc(O)c(C(N)=O)c1 (stereo unspecified)
94 | 179 to 181 °C | CSc1ccc([N+](=O)[O-])c(C(=O)NCC2CCN(C(c3ccccc3)c3ccccc3)CC2)c1
95 | 145 to 147 °C | CC(C#Cc1ccc(Oc2ccc(Cc3ccc(F)cc3)cc2)o1)N(O)C(N)=O (stereo unspecified)
96 | 69 to 73 °C | CCC1SCCCN1C(=S)Nc1cccc(Cl)c1 (stereo unspecified)
97 | 116 to 118 °C | Cc1cc(Oc2ncc(C(F)(F)F)cc2Cl)nn1C(=O)Nc1ccccc1
98 | 187 to 189 °C | Cc1cccc(NC(c2cccc(O)c2)c2ccc3cccnc3c2O)n1 (stereo unspecified)
99 | 178 °C | Cc1coc(NCCN2CCC(Nc3nc4ccccc4n3Cc3ccc(F)cc3)CC2)n1
100 | 173 to 175 °C | CC(C)CC(=O)Nc1cccc(-c2ccnc3c(-c4cccc(N)c4)cnn23)c1
101 | 139 to 140 °C | N#Cc1cc(Sc2ccc3ccccc3c2)ccc1[N+](=O)[O-]
102 | 143 to 146 °C | CC(C)CCN1CCC2(CC1)CSC1=C(O2)c2ccccc2C(=O)C1=O
103 | < 20 °C | CCOC(=O)C(C)(C)Oc1ccc(-c2ccc(CCNC(=O)Cc3ccccc3)cc2)cc1
104 | 190 °C | Nc1cccc(-c2ccc(CCN3CCC4(CC3)NC(=O)N(Cc3ccccc3)C4=O)cc2)n1
105 | 130 to 134 °C | O=C(O)c1ccc(Cc2ccccc2)[nH]1
106 | 234 to 236 °C | CC(=O)NC1=C(C#N)C(c2cccc([N+](=O)[O-])c2)c2ccc3ccccc3c2O1 (stereo unspecified)

— a melting point compilation (Tetko et al.; mined from patent text by program, amines drawn as free bases though some values may be those of a salt)
